Test results from patent EP0361645B1, “Organic hydrazine derivatives for pharmaceutical use” (ROHM AND HAAS COMPANY, priority 1988, dated 1990).

Columns and labels:
Kr cells [1] = assay: Process elaboration and inhibition of cell proliferation in Kr cells; type: cell-based, Drosophila; settings: Drosophila melanogaster; 48 hours incubation; initial cell density 2 X 10^6 cells/ml
Protocol: The invention will now be further described by way of exemplification and by reference to the drawings in which; • Figure 1. Both 20-hydroxyecdysone and Example No. 3 induce process elaboration (A) and inhibition of cell proliferation (B) in Kr cells in a dose-dependent manner. Initial cell density was 2 X 10^6 cells/ml; after incubation of 1 ml aliquots of the cells with the compound for 48 hours the cells were triturated gently and the percentage of cells responding (with processes longer than approximately 17 um, see Cherbas et al. 189 Wilhelm Roux's Arch. 1 (1980)) and total cell density was determined by hemocytom- eter counting, relative to ethanol (1 ul)-treated controls. Determinations were in triplicate for each dose. […] Induction of acetylcholinesterase by varying concentrations of 20-hydroxyecdysone and Example No. 3. Kr cells at an initial density of 3 X 10^6 cells/ml (10 ml per sample) were incubated with the agonist for three days. After harvesting, by centrifugation at 3000 X g, the cell pellets were washed with Robb's Drosophila saline (18, 2 X 5 ml) at 4 ° C, then lysed by sonication in 1 ml of phosphate buffer (pH 7.4, I = 0.1 M) containing 0.5 M NaCI, 0.25 M EDTA and 0.5% TRITON? X-100. See Cherbas, 197 Science 275 (1977). Triton is a registered trademark of Rohm and Haas Company for a alkylaryl polyoxyethylene glycol surfactant. After centrifugation at 16,000 X g, the supernatants were assayed for acetylcholinesterase activity by an adaptation of the method of Ellman et al., 7 Biochem. Pharmacol. 88 (1961), by subtracting out any 412 nm absorbance observed in incubations in the presence of 2 X 10-5 eserine sulfate. Thus reaction mixtures contained 50 ul of enzyme extract, 20 ul eserine (blank tubes only) and 1.0 ml of 0.5 mM acetylthiocholine, 0.3 mM dithiobisnitrobenzoic acid in phosphate buffer (pH 7.4, I = 0.1 M). Incubations were at 25 ° C for two hours; reactions in active tubes were terminated by addition of eserine. Absorbance at 412 nm was then measured. Protein concentration in extracts was measured by the Biorad method. […] Scatchard plot of ^3H-ponasterone A binding to Kr cell cytosolic receptor extracts in the presence of differing concentrations of Example No. 3. Cytosolic extract preparation and ecdysteroid receptor assays were essentially as described in Sage, 111 Meth. in Enzymol. 458 (1985). Example No. 3 was added in 1 ul DMSO to 50 ul of radioligand in 10 mM Tris buffer (pH 7.2) and 50 ul of undiluted cytosol extract. […] Ecdysteroid titers were measured by a radioimmunoassay adapted from Warren et al., 40 Experientia 393 (1984) with Protein A-Staph. aureus suspension (Sigma) used as the reagent to separate bound from free ligand. […]

Kr cells [2] = assay: Resistant Kr cell populations: response and ecdysteroid receptor activity; type: cell-based, Drosophila; settings: for response of surviving cells (process elaboration, proliferation): four weeks in 1 X 10^-6 M 20 hydroxyecdysone or 1 X 10^-4 M Example No. 3; for ^3H-ponasterone A bound by resistant cell populations: populations reared in 1 X 10^-6 M 20-hydroxyecdysone or 1 X 10^-4 M Example No. 3, solvent controls 10.1
Protocol: Resistant Kr cell populations were reared by incubating cells at an initial density of 8 X 10^6 cells/ml with hormone or Example No. 3. The cells killed by treatment provide a feeder layer for the resistant populations. […] Ponasterone binding was assayed as described below and protein concentrations were determined using the Biorad method. This cross-resistance is compelling evidence that 20-hydroxyecdysone and Example No. 3 act through the ecdysone receptor.

helminths = settings: stated as known; cited from earlier work
[3] = Hemolymph titers of 14C-Example No. 3 in L5 hornworms after feeding; type: in vivo, M. sexta
[4] = test system: ligated M. sexta abdomens (L5D3); assay: Onset of pupal development in ligated L5D3 M. sexta abdomens (injection); type: in vivo; settings: injected into L5D3 abdomens, events related to pupal formation
Protocol: L4D1 means fourth instar, first day after molting. L4 animals 36 hours after ecdysis were ligated, decapitated and next day injected with varying doses of compound in 1 - 2 ul DMSO. They were scored as follows: 0 = normal L4 abdomens with no L5 crochets or spiracle apolysis; 1 = exposed dorsal vessel (response to moderate levels of molting hormone in the presence of low JH levels); 2 = L5 crochets formed but no spiracle apolysis; 3 = L5 crochets formed and mild spiracle apolysis; 4 = strong molting response, both L5 crochets and spiracle cuticle synthesized. These methods are an adaptation of the method of J. W. Truman, L. M. Riddiford, L. Safranek, 39 Dev. Biol 247 (1974). Injection and scoring of L5D3 abdomens (weighing 6.5 - 7.5 g) are also adaptations of previous methods in H. F. Nijhout, 22 J. Insect Physiol. 453 (1976). […] Animals were held over moistened filter paper at 25 ° C and were scored after three days. […] For both L4 and L5 abdomens, 50% effective doses were determined by plotting the mean score for all individuals vs. dose, then determining the dose which gives a score of 2.0 and 1.5 respectively. Intact L5D0 hornworms were either allowed to feed on treated commercial black cutworm diet or injected into a proleg and scored after 48 hours. The 50% effective dose was calculated by plotting percentage of the population bearing a prematurely apolysed head capsule vs. dose. […]

In the case of `CC(C)(O)CC[C@@H](O)[C@](C)(O)[C@H]1CC[C@@]2(O)C3=CC(=O)[C@@H]4C[C@@H](O)[C@@H](O)C[C@]4(C)[C@H]3CC[C@]12C` [20-hydroxyecdysone, reference compound], the EC50 (Kr cells [1]) is reported as 35 nM, the “response of surviving cells (process elaboration, proliferation)” value (Kr cells [2]) is reported as “do not respond to either compound” and the “^3H-ponasterone A bound by resistant cell populations” value (Kr cells [2]) is reported as 1.5 femtomoles ^3H-ponasterone A per mg cytosolic protein. For the same molecule, the control of helminths (helminths) was “controls helminths”.

For `CC(C)(C)N(NC(=O)c1ccccc1)C(=O)c1ccccc1` [Example No. 3, N'-t-butyl-N,N'-dibenzoylhydrazine], the EC50 (Kr cells [1]) was 4800 nM, the “response of surviving cells (process elaboration, proliferation)” value (Kr cells [2]) was “do not respond to either compound” and the “^3H-ponasterone A bound by resistant cell populations” value (Kr cells [2]) was 1.4 femtomoles ^3H-ponasterone A per mg cytosolic protein. For the same molecule, the “peak hemolymph concentration relative to concentrations required for a 50% response in Kr cell process elaboration and ^3H-ponasterone A displacement” value ([3]; 10 ug/g oral dose) was 3 to 5 fold, the concentration at 36 h ([3]; tobacco hornworm, hemolymph, po, 10 ug/g in diet, for at least 36 hours thereafter, read-out: residual hemolymph level) was roughly 3 µM and the Cmax at 6 h ([3]; tobacco hornworm, hemolymph, po, L5D0 larvae, 10 ug/g in diet, at six hours after the initiation of feeding, read-out: peak hemolymph concentration) was 16 µM. For the same molecule, the “times as potent as 20-hydroxyecdysone” value [4] was 30 times.
